In patent publication US4540702A, “2-Substituted-4-thiazolidones” (Kureha Kagaku Kogyo Kabushiki Kaisha, priority 1979, dated 1985):

What was measured:
Type in all cases: in vivo
[1] = Effect against peptic ulcer formed by ligating the pylorus (Shay et al.); details: pylorus-ligated rat, 100 mg/kg intraperitoneal; for inhibition in vivo at 100 mg/kg: Rattus norvegicus, ip, 15 h, vs control group, read-out: Rate of suppression of peptic ulcer; for Coefficient of peptic ulcer: 15 hours
Method: Each male rat of a group consisting of 10 animals, weighing 180 to 200 g, after 48 hours' fasting, was subjected to ligature at its pyloric part under the anesthesia by ether following the method of Shay et al. (refer to Gastroenterology, Vol. 5, 43, 1945). Just after the ligature, each of the present compounds suspended in an aqueous physiological saline solution was injected into each rat's abdominal cavity at a dose rate of 100 mg/kg body weight, the control group being injected with an aqueous physiological saline solution. After keeping the rats at a state of fasting without taking water for 15 hours, the rats were sacrificed by ether and their stomachs were removed to examine under a microscope for autopsy. The longitudinal and horizontal lengths of the thus formed peptic ulcer were determined and expressed by the product (mm^2), and the total sum of the products was represented as the coefficient of ulcer.
The rate of suppression of peptic ulcer (%) is expressed by the ratio of the difference between the coefficient of peptic ulcer of control group and the coefficient of peptic ulcer of the treated group to the coefficient of peptic ulcer of control group multiplied by 100.

[2] = Effect on duodenal peptic ulcer induced by acetic acid (Okabe et al.); details: oral 100 mg/kg/day, three times a day for 10 days; for inhibition in vivo at 100 mg/kg/day: Rattus norvegicus, po, 240 h, vs control group, read-out: Rate of curation of peptic ulcer; for Coefficient of peptic ulcer: acetic acid duodenal ulcer rat
Source text: The inventors of the present invention, taking into account of these situations, added to the method of evaluation the effect of accelerating the curation of the peptic ulcer by orally administering the present compound and a commercialized anti-peptic medicine, respectively to rats to which duodenal peptic ulcer due to acetic acid (refer to Okabe, 1971) considered to be most closely resembling to human peptic ulcer has been artificially formed.
Following the method of Okabe et al. (refer to Amer. J. Dig. Dis., Vol. 16, 277, 1971), each male rat weighing 240 to 260 g of a group consisting of 15 animals was subjected to laparotomy under ether-anesthesia and a metal circular frame was put on a part of the serosa at the distance of 5 to 7 mm from the duodenal pylorus and 0.06 ml of glacial acetic acid was poured on the circular part of the frame. After 30 seconds, the acetic liquid was removed and the frame was also removed. Each of the present compounds suspended in an aqueous 0.5% CMC solution was orally administered to the rat from after 3 days of the operation three times a day for consecutive 10 days, rats of control group being given the aqueous 0.5% CMC solution. After ending the administration, the rats were sacrificed by ether, their duodenum being removed to be examined under a microscope for autopsy. The longitudinal and horizontal lengths of the thus formed ulcer were determined and the product of the lengths expressed by mm^2 was recorded as the coefficient of peptic ulcer. The rate of curation of peptic ulcer, in this Example is calculated by the same manner as the rate of suppression of peptic ulcer in Example 5.

[3] = Suppressive action on gastric secretion (pyloric ligature); details: rat, intraduodenal 200 mg/kg, 4 hours; for Rate of suppression on gastric secretion: vs control
Method: Groups of male rats (a group consisted of 10 animals) were subjected to pyloric ligature under etherization after fasting for 24 hours, and each of the compounds to be tested was administered intraduodenally as an emulsion or suspension in an aqueous 0.5% by weight solution of sodium carboxymethylcellulose just after ligation. After 4 hours of the laparotomy, the stomach of each rat was extirpated under etherization, and the amount of gastric juice in the stomach was measured.

| Structure (SMILES) | inhibition in vivo at 100 mg/kg [1] [%] | Coefficient of peptic ulcer [1] [mm^2] | inhibition in vivo at 100 mg/kg/day [2] [%] | Coefficient of peptic ulcer [2] [mm^2] | Amount of gastric juice [3] [mL] | Rate of suppression on gastric secretion [3] [%] |
| --- | --- | --- | --- | --- | --- | --- |
| COc1cccc(C2NC(=O)CS2)c1 (stereo not drawn) [2-(3-methoxyphenyl)-4-thiazolidone] | 86 | 5.5 | 73.3 | 2.0 |  |  |
| COc1ccc(OC)c(C2NC(=O)CS2)c1 (stereo not drawn) [2-(2,5-dimethoxyphenyl)-4-thiazolidone] | 79 | 9.4 | 65.3 | 2.6 | 3.5 | 32.8 |
| COc1ccccc1C1NC(=O)CS1 (stereo not drawn) [2-(2-methoxyphenyl)-4-thiazolidone] | 87.4 | 5.3 | 80 | 1.5 | 4.0 | 40.2 |
| COc1cc(C2NC(=O)CS2)cc(OC)c1O (stereo not drawn) [2-(3,5-dimethoxy-4-hydroxyphenyl)-4-thiazolidone] | 81.9 | 7.6 | 88 | 2.4 |  |  |
| COc1cccc(C2NC(=O)CS2)c1OC (stereo not drawn) [2-(2,3-dimethoxyphenyl)-4-thiazolidone] | 82.9 | 8.8 | 82.7 | 1.3 | 3.7 | 44.7 |
| O=C1CSC(c2ccccc2C(=O)O)N1 (stereo not drawn) [2-(2-carboxyphenyl)-4-thiazolidone] | 79.8 | 8.5 | 60 | 3.0 |  |  |
| COc1cc(C2NC(=O)CS2)cc(OC)c1OC (stereo not drawn) [2-(3,4,5-trimethoxyphenyl)-4-thiazolidone] | 85.8 | 6.5 | 82.1 | 1.4 |  |  |
| COc1ccc(C2NC(=O)CS2)cc1 (stereo not drawn) [2-(4-methoxyphenyl)-4-thiazolidone] | 68.1 | 13.4 | 58.7 | 3.1 |  |  |
| CC(C)=CCCC(C)=CCCC(C)=CCCC(=O)OCC=C(C)CCC=C(C)C [Gefarnate, 3,7dimethyl-2,6-octadienyl 5,9,13trimethyl-4,8,12-tetradecatrienoate, reference compound] | ~11 | 37.4 | 23 | 5.8 | 6.5 | 2.9 |
| CCOc1ccccc1C1NC(=O)CS1 (stereo not drawn) [2-(2-ethoxyphenyl)-4-thiazolidone] | 81.9 | 7.6 | 76 | 1.8 | 4.3 | 35.8 |
| COc1ccc(C2NC(=O)CS2)cc1OC (stereo not drawn) [2-(3,4-dimethoxyphenyl)-4-thiazolidone] | 91.9 | 3.4 | 80 | 1.5 | 3.3 | 50.7 |
| CN(C)c1ccc(C2NC(=O)CS2)cc1 (stereo not drawn) [2-(4-dimethylaminophenyl)-4-thiazolidone] | 75 | 10.5 | 88 | 2.4 |  |  |
